Source: patent publication US20130217892A1, “Use Of N-Substituted 2-Pyrrolidone-4-Carboxylic Acid Esters And Solvents” (CLARIANT FINANCE (BVI) LIMITED, priority 2010, published 2013)

Assay: Solubilities of pesticides in compounds of the formula (1)
Type: physicochemical
Experimental: The solubilities of various pesticides were determined in various compounds of the formula (1) at 25° C. All data are in % by weight (Table 1).

With `CCCCOC(=O)C1CC(=O)N(C)C1` (centres unmarked) [example 3, N-Butyl N-Methyl-2-Pyrrolidone-4-Carboxylate] the “Solubility of Pendimethalin in the compound of the formula (1)” value was 38.9 % by weight, the “Solubility of Tebuconazole in the compound of the formula (1)” value was 37.0 % by weight and the “Solubility of Triadimefon in the compound of the formula (1)” value was 43.0 % by weight. The “Solubility of Trifloxystrobin in the compound of the formula (1)” value was 30.1 % by weight and the “Solubility of Trifluralin in the compound of the formula (1)” value was 57.4 % by weight.
